Reference: patent US20030054990A1, “Methods of using neural thread proteins to treat tumors and other conditions requiring the removal or destruction of cells” (Nymox Pharmaceutical Corporation, priority 2001, published 2003)
“And” between values parts separate entries of the source, which are not always exact repeats. Identical values can stand only once.

Tests used:
Assay type in all cases: cell-based
neuroblastoma cells = test: MTT assay, cytotoxicity in neuroblastoma cells; conditions: Tamoxifen 100 μM, AD7C-NTP 100-1000 ng/ml; for Sample (absorbance difference): single replicate
Procedure: (§1) Cryopreserved glioma and neuroblastoma cells were acquired from the American Type Culture Collection (ATCC), Virginia. Cells were thawed and diluted in suspension media and centrifuged at 700 rpm for 7 minutes at 4° C. Cell pellets were then resuspended in CACO-2 media and cultured in standard 75 or 175 cm^2 flasks at 37° C., 5% CO2 until approximately confluent. The cells were then trypsinized and resuspended in CACO-2 media to achieve a final cell density of 1.5×10^5 cells/ml. 50 μl aliquots per sample were then added per well to 96 well plates.
(§2) For Experiment I, 50 μl of either PBS (phosphate buffered solution) (negative control), 100 μM tamoxifen in phosphate buffered saline PBS (positive control), or test article were added to each sample culture.
(§3) For Experiment II, 1 mM tamoxifen in DMSO (dimethylsulfoxide) was diluted to 100 μM concentration in CACO-2 media, and 100 μl per well was added to positive control wells. A vehicle control consisting of 1% DMSO in CACO-2 media was also added to this experiment. Other negative controls consisted of human and bovine serum albumin and other nontoxic polypeptides.
(§4) An MTT assay is a sensitive assay for the measurement of cell proliferation based upon the reduction of the tetrazolium salt 3,[4,5-dimethylthiazol-2-yl]-2,5-diphenyltetrazolium bromide (MTT).
(§5) Following incubations with control or test substances, media was aspirated and 100 μl MTT was added to each well. Plates were then incubated for 3 hours at 37° C., 5% CO2. MTT was then replaced with acidified isopropanol (0.4 N HCI) and the plates were stored overnight at 4° C., covered. Plates were then agitated gently for 1 minute on a rotary shaker and the difference between emission absorbance of 570 nm and background absorbance of 650 nm was measured spectrophotometrically on an automated plate reader.
(§6) Neuroblastoma and glioma cells were incubated for 24 hours following treatment with test materials or control solutions. MTT was added to all cultures at this time. Results are expressed as means absorbance differences and represented as per cent of negative control and are shown in Table 1 (cytotoxicity in glioma cells) and Table 2 (cytotoxicity in neuroblastoma cells).
(§7) Glioma cells and neuroblastma cells were used for this experiment. MTT was added to the plates following a 24 hour incubation with control or test solutions. Other plates were replenished with fresh media, control, or test solution at 24 hours and then read 3 days later. Results are expressed as mean absorbance differences and as per cent of negative control and are shown in Table 3 (glioma cells) and Table 4 (neuroblastoma cells).

[1] = MTT assay, cytotoxicity in neuroblastoma cells; conditions: neuroblastoma cells (ATCC), per cent of negative control, Tamoxifen 100 μM, AD7C-NTP 100-1000 ng/ml, read-out: Percent Of Viable Cells
Procedure: as §1, §2, §3, §4, §5, §6, §7

glioma cells = test: MTT assay, cytotoxicity in glioma cells; conditions: Tamoxifen 100 μM, AD7C-NTP 100-1000 ng/ml; for ABS 570-650 Sample: single replicate
Procedure: as §1, §2, §3, §4, §5, §6, §7

[2] = MTT assay, cytotoxicity in glioma cells; conditions: glioma cells (ATCC), per cent of negative control, Tamoxifen 100 μM, AD7C-NTP 100-1000 ng/ml, read-out: Percent Of Viable Cells
Procedure: as §1, §2, §3, §4, §5, §6, §7

CC/C(=C(\c1ccccc1)c1ccc(OCCN(C)C)cc1)c1ccccc1 [PC (Tamoxifen), tamoxifen]
Mean (absorbance difference) (neuroblastoma cells; 24 hour incubation): 0.010
Sample (absorbance difference) (neuroblastoma cells; 24 hour incubation): 0.010 and 0.009
Mean (absorbance difference) (neuroblastoma cells; 4 day incubation): 0.019
Sample (absorbance difference) (neuroblastoma cells; 4 day incubation): 0.016
viability at 24 h, 100 µM ([1]; 24 hour incubation): 14%
viability at 4 days, 100 µM ([1]; 4 day incubation): 25%
ABS 570-650 Mean (glioma cells; 24 hrs): 0.015
ABS 570-650 Sample (glioma cells; 24 hrs): 0.017 and 0.012
ABS 570-650 Mean (glioma cells; 4 days): 0.015
ABS 570-650 Sample (glioma cells; 4 days): 0.018 and 0.012
viability at 24 h, 100 µM ([2]; 24 hrs): 28%
viability at 4 days, 100 µM ([2]; 4 days): 19%
